Reference: patent US8017612B2, “Piperazine compound and use thereof as a HCV polymerase inhibitor” (priority 2006, dated 2011)

What was measured:
[1] = molecular target: T1, HCV polymerase (NS5B) type 1b (Hepatitis C virus genotype 1b, UniProt P26663); assay: Assay of enzyme (HCV polymerase) inhibitory activity, type 1b enzyme; assay type: biochemical, HCV BK strain (type 1b)
T1 construct: a region encoding NS5B (J Virol 1991 March, 65(3), 1105-13, 544 amino acids after deletion of 47 amino acids on the C-terminal); 6xHis (C); made in house; host or cells: Escherichia coli
How it was run: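 IC50 derived from [3H]UTP incorporation into TCA-insoluble RNA, compared with and without test compound. Reaction (25 °C, 60 min, Tris pH 7.5, 5 mM MgCl2): E. coli-expressed 1b NS5B Δ47 with His tag at 0.5 μg/ml, 5 μg/ml run-off substrate RNA, ATP/GTP/CTP 50 μM, UTP 2 μM.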

[2] = molecular target: T2, HCV polymerase (NS5B) type 1a (Hepatitis C virus genotype 1a, UniProt P26664); assay: Assay of enzyme (HCV polymerase) inhibitory activity, type 1a enzyme; assay type: biochemical, HCV type 1a (cloned from the blood of patients)
T2 construct: made in house; host or cells: Escherichia coli (by the 'similar method' of the 1b enzyme)
How it was run: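 Reactions ran 60 min at 25° C in 20 mM Tris-HCl pH 7.5, 5 mM MgCl2, 50 mM NaCl, holding genotype 1a NS5B (1.5 μg/ml, Δ47 C-terminus, 6His), substrate RNA 5 μg/ml, UTP 2 μM with tritiated UTP and other NTPs 50 μM. IC50 derived from incorporated radiolabel in filter-trapped RNA relative to uninhibited reaction.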

[3] = HCV polymerase inhibitory activity (IC50), 1b, type 1b enzyme 0.5 μg/ml, 25° C., 60 min
[4] = HCV polymerase inhibitory activity (IC50), 1a, type 1a enzyme 1.5 μg/ml, 25° C., 60 min
[5] = HCV polymerase inhibitory activity IC50, 1b, type 1b enzyme
[6] = HCV polymerase inhibitory activity IC50, 1a, type 1a enzyme

| SMILES | IC50 [1, 3] | IC50 [2, 4] | IC50 [1, 5] | IC50 [2, 6] |
| --- | --- | --- | --- | --- |
| CC(C)c1ccc(CNC(=O)[C@H]2CN(C(=O)Nc3ccc(OCC(=O)O)cc3)CCN2S(=O)(=O)c2ccc(C(F)(F)F)cc2)cc1 [Example 246, (4-{[(R)-3-(4-isopropyl-benzylcarbamoyl)-4-(4-trifluoromethyl-benzenesulfonyl)-piperazine-1-carbonyl]-amino}-phenoxy)-acetic acid] | 100 to 1000 nM | > 1000 nM |  |  |
| CCCc1ccc(CNC(=O)[C@H]2CN(c3cnc(C(=O)O)cn3)CCN2S(=O)(=O)c2ccc(CC)s2)cc1 [Example 522, (R)-4-(5-ethyl-thiophene-2-sulfonyl)-3-(4-propyl-benzylcarbamoyl)-3,4,5,6-tetrahydro-2H-[1,2′]bipyrazinyl-5′-carboxylic acid] | < 100 nM | < 100 nM |  |  |
| CCCc1ccc(CNC(=O)[C@H]2CN(c3cnc4cnccc4n3)CCN2S(=O)(=O)c2ccc(-c3cccc(OCC(=O)O)c3)cc2)cc1 [Example 779, {4′-[(R)-2-(4-propyl-benzylcarbamoyl)-4-pyrido[3,4-b]pyrazin-2-yl-piperazine-1-sulfonyl]-biphenyl-3-yloxy}-acetic acid] |  |  | < 100 nM | < 100 nM |
| CC(C)c1ccc(CNC(=O)[C@H]2CN(c3cnc(C(=O)O)c(N)n3)CCN2S(=O)(=O)c2ccc(C(F)(F)F)cc2)cc1 [Example 443, (R)-6′-amino-3-(4-isopropyl-benzylcarbamoyl)-4-(4-trifluoromethyl-benzenesulfonyl)-3,4,5,6-tetrahydro-2H-[1,2′]bipyrazinyl-5′-carboxylic acid] | < 100 nM | 100 to 1000 nM |  |  |
| CC(=O)N1CCN(S(=O)(=O)c2ccc(I)cc2)C(C(=O)NCc2ccc(C(F)(F)F)cc2)C1 (centres unmarked) [Example 61, 4-acetyl-1-(4-iodo-benzenesulfonyl)-piperazine-2-carboxylic acid 4-trifluoromethyl-benzylamide] | > 1000 nM | > 1000 nM |  |  |
| O=C(NCc1ccc(OCF)cc1)[C@H]1CN(c2nc3nc(Cl)ncc3s2)CCN1S(=O)(=O)c1ccc(OC(F)(F)F)cc1 [Example 966, (R)-4-(5-chloro-thiazolo[4,5-d]pyrimidin-2-yl)-1-(4-trifluoromethoxy-benzenesulfonyl)-piperazine-2-carboxylic acid 4-fluoromethoxy-benzylamide] |  |  | < 100 nM | < 100 nM |
| CC(=O)N1CCN(S(=O)(=O)c2ccc(C(C)C)cc2)C(C(=O)NCc2cccc(OC(F)(F)F)c2)C1 (centres unmarked) [Example 121, 4-acetyl-1-(4-isopropyl-benzenesulfonyl)-piperazine-2-carboxylic acid 3-trifluoromethoxy-benzylamide] | > 1000 nM | > 1000 nM |  |  |
| CCC(F)(F)c1ccc(CNC(=O)[C@H]2CN(C(=O)Nc3nnc(C(=O)N4CCOCC4)s3)CCN2S(=O)(=O)c2ccc(OC(F)(F)F)cc2)cc1 [Example 497, (R)-4-(4-trifluoromethoxy-benzenesulfonyl)-piperazine-1,3-dicarboxylic acid 3-[4-(1,1-difluoro-propyl)-benzylamide] 1-{[5-(morpholine-4-carbonyl)-[1,3,4]thiadiazol-2-yl]-amide}] | > 1000 nM | > 1000 nM |  |  |
| CN(CC(=O)O)c1ccc(S(=O)(=O)N2CCN(c3cnc4cnccc4n3)C[C@@H]2C(=O)NCc2ccc(OC(F)(F)F)cc2)cc1 [Example 765, (methyl-{4-[(R)-4-pyrido[3,4-b]pyrazin-2-yl-2-(4-trifluoromethoxy-benzylcarbamoyl)-piperazine-1-sulfonyl]-phenyl}-amino)-acetic acid] |  |  | < 100 nM | < 100 nM |
| CCCc1ccc(CNC(=O)[C@H]2CN(c3cnc(C(=O)OC)c(NC(C)=O)n3)CCN2S(=O)(=O)c2ccc(OC(F)(F)F)cc2)cc1 [Example 515, (R)-6′-acetylamino-3-(4-propyl-benzylcarbamoyl)-4-(4-trifluoromethoxy-benzenesulfonyl)-3,4,5,6-tetrahydro-2H-[1,2′]bipyrazinyl-5′-carboxylic acid methyl ester] | < 100 nM | < 100 nM |  |  |
| CCCc1ccc(CNC(=O)[C@H]2CN(c3cnc(C(=O)O)cn3)CCN2S(=O)(=O)c2ccc(Br)cc2)cc1 [Example 687, (R)-4-(4-bromo-benzenesulfonyl)-3-(4-propyl-benzylcarbamoyl)-3,4,5,6-tetrahydro-2H-[1,2′]bipyrazinyl-5′-carboxylic acid] |  |  | < 100 nM | < 100 nM |
| CC(=O)N1CCN(S(=O)(=O)c2ccc(C(C)C)cc2)[C@@H](C(=O)NCc2ccc(Br)cc2Cl)C1 [Example 182, (R)-4-acetyl-1-(4-isopropyl-benzenesulfonyl)-piperazine-2-carboxylic acid 4-bromo-2-chloro-benzylamide] | 100 to 1000 nM | 100 to 1000 nM |  |  |
| O=C(NCc1c(F)c(F)c(C(F)(F)F)c(F)c1F)[C@H]1CN(c2cnc3cncnc3n2)CCN1S(=O)(=O)c1ccc(OC(F)(F)F)cc1 [Example 795, (R)-4-pteridin-7-yl-1-(4-trifluoromethoxy-benzenesulfonyl)-piperazine-2-carboxylic acid 2,3,5,6-tetrafluoro-4-trifluoromethyl-benzylamide] |  |  | < 100 nM | < 100 nM |
| CCCc1ccc(CNC(=O)[C@H]2CN(c3nc(Cl)c(C(=O)O)s3)CCN2S(=O)(=O)c2ccc(OC(F)(F)F)cc2)cc1 [Example 847, 4-chloro-2-[(R)-3-(4-propyl-benzylcarbamoyl)-4-(4-trifluoromethoxy-benzenesulfonyl)-piperazin-1-yl]-thiazole-5-carboxylic acid] |  |  | < 100 nM | < 100 nM |
| Cc1ncc2sc(N3CCN(S(=O)(=O)c4ccc(C(F)(F)F)cc4)[C@@H](C(=O)NCc4ccc(OC(F)(F)F)cc4)C3)nc2n1 [Example 925, (R)-4-(5-methyl-thiazolo[4,5-d]pyrimidin-2-yl)-1-(4-trifluoromethyl-benzenesulfonyl)-piperazine-2-carboxylic acid 4-trifluoromethoxy-benzylamide] |  |  | < 100 nM | < 100 nM |
| COC(=O)N1CCN(S(=O)(=O)c2ccc(C(C)C)cc2)C(C(=O)NCc2ccc(C(F)(F)F)cc2)C1 (centres unmarked) [Example 32, 4-(4-isopropyl-benzenesulfonyl)-3-(4-trifluoromethyl-benzylcarbamoyl)-piperazine-1-carboxylic acid methyl ester] | > 1000 nM | > 1000 nM |  |  |
| CCCc1ccc(CNC(=O)[C@H]2CN(c3cnc(C(=O)O)cn3)CCN2S(=O)(=O)c2ccc(OC(F)(F)F)cc2)c(C)c1 [Example 432, (R)-3-(2-methyl-4-propyl-benzylcarbamoyl)-4-(4-trifluoromethoxy-benzenesulfonyl)-3,4,5,6-tetrahydro-2H-[1,2′]bipyrazinyl-5′-carboxylic acid] | < 100 nM | < 100 nM |  |  |
| NC(=O)c1cncc2ncc(N3CCN(S(=O)(=O)c4ccc(OC(F)(F)F)cc4)[C@@H](C(=O)NCc4ccc(OC(F)(F)F)cc4)C3)nc12 [Example 807, 2-[(R)-4-(4-trifluoromethoxy-benzenesulfonyl)-3-(4-trifluoromethoxy-benzylcarbamoyl)-piperazin-1-yl]-pyrido[3,4-b]pyrazine-8-carboxylic acid amide] |  |  | < 100 nM | < 100 nM |
| CC(=O)N1CCN(S(=O)(=O)c2ccc(C(F)(F)F)cc2)[C@@H](C(=O)NCc2ccc(C(C)C)cc2)C1 [Example 176, (R)-4-acetyl-1-(4-trifluoromethyl-benzenesulfonyl)-piperazine-2-carboxylic acid 4-isopropyl-benzylamide] | 100 to 1000 nM | 100 to 1000 nM |  |  |
